# Measurements as given in paper PMC11172786, “Melatonin-Regulated Chaperone Binding Protein Plays a Key Role in Cadmium Stress Tolerance in Rice, Revealed by the Functional Characterization of a Novel Serotonin N-Acetyltransferase 3 (SNAT3) in Rice” (International Journal of Molecular Sciences, 2024).
# B1: OsSNAT3 (OsSNAT3-His6) (Oryza sativa Japonica Group) (protein)
# chain: MGAGEGDAAAGNKEKGGGGGVDRTSLDGVRDKNVMQLKKLNTALFPVRYNEKYYHDTIASKEFSKLAYYSDICVGAIACRLEKKEGGAVCVYIMTLGVLAPYRSLGIGSKLLNHVIDLCEKQNIPEIYLHVQTNNDDAIAFYKKFGFEITKTIEKYYKNITPPDCYVLTKFIGQAATKK
# notes: cDNA-derived N-terminus MGAGEG, C-terminus QAATKK
# Assays:
# OsSNAT3 (OsSNAT3-His6) = target: T1, OsSNAT3 (OsSNAT3-His6) (Oryza sativa, UniProt B7F8K4); assay: inhibition of serotonin N-acetylation, HPLC; format: biochemical; conditions: 0.5 mM serotonin and 0.5 mM amine, pH 8.8, 55 °C; possible alternative substrate; tag form not stated for this figure
# T1 construct: cDNA-derived N-terminus MGAGEG, C-terminus QAATKK
# T1 sequence (B7F8K4 1-179): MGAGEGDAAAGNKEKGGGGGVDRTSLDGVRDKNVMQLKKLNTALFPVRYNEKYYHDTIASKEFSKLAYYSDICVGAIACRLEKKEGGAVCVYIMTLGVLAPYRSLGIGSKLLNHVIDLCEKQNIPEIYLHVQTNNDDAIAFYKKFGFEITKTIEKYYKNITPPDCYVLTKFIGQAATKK
# [1] = substrate: COc1ccc2[nH]cc(CCN)c2c1; assay: HPLC detection of melatonin, Lineweaver-Burk; format: biochemical, Oryza sativa; conditions: 0.5 mM acetyl-CoA, 100 mM potassium phosphate pH 8.8, 45 °C
# [2] = substrate: NCCc1c[nH]c2ccc(O)cc12; assay: HPLC detection of N-acetylserotonin, Lineweaver-Burk; format: biochemical, Oryza sativa; conditions: 0.5 mM acetyl-CoA, 100 mM potassium phosphate pH 8.8, 45 °C
Molecule,SNAT activity with 0.5 mM amine (OsSNAT3 (OsSNAT3-His6)),Km [1] [µM],Km [2] [µM]
NCCCCN [putrescine],significantly inhibited by putrescine and dopamine,–,–
NCCc1ccc(O)c(O)c1 [dopamine],significantly inhibited by putrescine and dopamine,–,–
NCCCCNCCCN [spermidine],OsSNAT3 activity was strongly inhibited by spermidine and octopamine (Figure 3C),–,–
NC[C@H](O)c1ccc(O)cc1 [octopamine],OsSNAT3 activity was strongly inhibited by spermidine and octopamine (Figure 3C),–,–
B1,–,1587,1152
